Laboratory results as given in ChEMBL document CHEMBL1158793, “Taxezopidines M and N, taxoids from the Japanese yew, Taxus cuspidata” (J Nat Prod, 2005).
Active and inactive are the calls of the source. The rule behind the calls is not given here.

Legend:
[1] = Inhibition of CaCl2-induced microtubule depolymerization at 5 uM by spectrophotometry
KB = assay: Cytotoxicity against human KB cells at 10 ug/ml; assay type: functional, cell-based
L1210 = assay: Cytotoxicity against mouse L1210 cells at 10 ug/ml; assay type: functional, cell-based
[2] = Inhibition of CaCl2-microtubule depolymerization at 50 uM by spectrophotometry

| Compound | Activity [1] | Activity (KB) | Activity (L1210) | Activity [2] |
| --- | --- | --- | --- | --- |
| CC(=O)O[C@H]1C(=O)[C@@]2(C)[C@H]([C@H](OC(=O)c3ccccc3)[C@]3(O)C[C@H](OC(=O)[C@H](O)[C@@H](NC(=O)c4ccccc4)c4ccccc4)C(C)=C1C3(C)C)[C@]1(OC(C)=O)CO[C@@H]1C[C@@H]2O | Active |  |  |  |
| C=C1[C@@H](OC(=O)C[C@H](c2ccccc2)N(C)C)C[C@H](OC(C)=O)[C@@]2(C)[C@@H](OC(C)=O)[C@H](OC(C)=O)[C@]3(O)[C@@]4(C)CO[C@]3(C)C(=O)C[C@H]4[C@@H](OC(C)=O)[C@H]12 |  | inactive | inactive |  |
| C=C1[C@@H](OC(=O)C[C@H](c2ccccc2)N(C)C)CC[C@@]2(C)[C@@H](OC(C)=O)[C@H](OC(C)=O)C3=C(C)[C@]4(O)C[C@@H]([C@@H](OC(C)=O)[C@H]12)[C@@]3(C)CO4 |  | inactive | inactive | Active |
